We go through 48 molecules from patent US8058243B2, “Method for treating a brain cancer with ifenprodil” (HSC Research and Development Limited Partnership, priority 2006, dated 2011).

The test system of the experiment is murine neural precursor cells (neurosphere cultures). As to the kind of experiment: HTS of LOPAC library against secondary neurosphere cultures, MTT proliferation assay at 3 μM, day 7 (z score, P value). In kind it is cell-based, mouse. Background: Tetrazolium dyes change colour on reduction, which living cells bring about.
[1] abbreviates: LOPAC library screen at 3 μM, secondary neurosphere cultures, MTT.
[2] abbreviates: LOPAC primary screen, neurosphere MTT proliferation, 3 μM, day 7.
[3] abbreviates: yes/no: significantly inhibited neurosphere proliferation in primary screen.
The mark [4] stands for this setting: yes/no: significantly inhibited neurosphere proliferation (P<0.01) in the primary screen.
Where [5] appears, read: LOPAC library screen, 3 μM, MTT, secondary neurosphere cultures, day 7.
Where [6] appears, read: yes/no: significantly inhibited neurosphere proliferation (P<0.01) in primary screen.
The mark [7] stands for this setting: yes = significantly inhibited neurosphere proliferation (P<0.01) in the primary screen.
The mark [8] stands for this setting: LOPAC library screen, 3 μM, MTT, neurosphere cultures.
[9] abbreviates: LOPAC screen, neurosphere MTT proliferation, 3 μM, day 7.
Where [10] appears, read: LOPAC library screen at 3 μM, MTT, secondary neurosphere cultures, screened in singlets.
Where [11] appears, read: primary LOPAC screen, 3 μM, MTT, neurosphere proliferation.
Where [12] appears, read: yes/no: significantly inhibited neurosphere proliferation in the primary screen.

Structures can show the parent of a compound that is named as a salt. Where two headings read alike, the source gives them in different places.

Take `NC(=O)CN1CC(O)CC1=O` (stereo not shown) [Oxiracetam]: under setting [1], the “Z Score” value is on record as −0.6131. Moreover, the Z score under setting [2] is recorded as −0.613. In addition, the Activity entry under setting [3] is “no”.

For the molecule `CCCCC#Cc1nc(N)c2ncn([C@@H]3O[C@H](C(=O)NCC)[C@@H](O)[C@H]3O)c2n1` [HE-NECA], the “Z Score” value is −2.504. In addition, the Z score under setting [2] is −2.504. The Activity result under setting [4] is reported as “yes”.

For the molecule `O=C(O)Cc1c[nH]c2ccc(O)cc12` [5-Hydroxyindolacetic acid], under setting [5], the “Z Score” value is given as −1.301. The same molecule came in with a Z score under setting [2] of −1.301. For the same molecule, under setting [6], the Activity result is “no”.

As to `COc1ccc(CCN(C)CCCC(C#N)(c2ccc(OC)c(OC)c2)C(C)C)cc1OC.Cl` (stereo not shown) [(B1)-Verapamil hydrochloride], the “Z Score” value worked out at 1.008.

As for `COc1ccccc1N1CCNCC1.Cl` [1-(2-Methoxyphenyl)piperazine hydrochloride], the “Z Score” value is reported as −0.6388. The Z score under setting [2] is reported as −0.639. Besides, the Activity result under setting [3] is on record as “no”.

Take “Histamine, R(−)-alpha-methyl-, dihydrochloride”: the “Z Score” value under setting [5] is given as −1.469. Also, under setting [2], the Z score is −1.469. Further, under setting [6], the Activity entry was “no”.

As to `CCN(CC)CCCC(C)Nc1c2ccc(Cl)cc2nc2ccc(OC)cc12` (stereo not shown) [Quinacrine dihydrochloride], the Activity entry was “yes”. Besides, under setting [5], the “Z Score” value is recorded as −9.712. The molecule also came in with a Z score under setting [2] of −9.712.

On to `C[N+](C)(C)CC#CCN1CCCC1=O` [Oxotremorine methiodide], for which the “Z Score” value is recorded as −0.7002. The Z score under setting [2] was −0.700. For the same molecule, the Activity entry under setting [3] is listed as “no”.

(−)-MK-801 hydrogen maleate: the “Z Score” value came to 1.133. The molecule also yielded a Z score under setting [2] of 1.133. Also, the Activity result under setting [7] is recorded as “no”.

Consider `O=C1CN(/N=C/c2ccc(-c3ccc([N+](=O)[O-])cc3)o2)C(O)=N1` [Dantrolene sodium], for which the Activity entry was “no”. Further, under setting [8], the “Z Score” value is listed as 0.7985. Under setting [9], the Z score was found to be 0.798.

Turning to `CCCC(C(=O)OCCN(CC)CC)(c1ccccc1)c1ccccc1.Cl` [SKF-525A hydrochloride], the “Z Score” value is listed as −1.928. Under setting [2], this molecule displayed a Z score of −1.928. Also, under setting [4], the Activity entry is reported as “no”.

`Cl.NC1CCN(c2cccc(Cl)n2)CC1` [SR 57227A]: the “Z Score” value is reported as −1.4. This molecule also gave a Z score under setting [2] of −1.400. Moreover, under setting [3], the Activity result was “no”.

In the case of `Cc1nc2c(OCc3ccccc3)cccn2c1CC#N` [SCH-28080], the “Z Score” value came to 2.107. The molecule further had a Z score under setting [9] of 2.107. The Activity result under setting [6] was “no”.

For the molecule `CCc1cccc(N(C)C(N)=Nc2cccc3ccccc23)c1` [CNS-1102], the Activity entry is “yes”. Moreover, the “Z Score” value under setting [5] is given as −3.782. This molecule also registered a Z score under setting [2] of −3.782.

As for `C[N+]1(C)[C@@H]2CC[C@H]1C[C@@H](OC(=O)C(CO)c1ccccc1)C2` (stereo partly shown) [Atropine methyl bromide], the “Z Score” value under setting [1] is given as −0.8716. The Z score under setting [2] is −0.872. For the same molecule, the Activity result under setting [7] is on record as “no”.

On to `Cl.NCC(O)c1ccc(O)cc1` (stereo not shown) [(B1)-Octopamine hydrochloride], for which the “Z Score” value is on record as −1.567.

Regarding `NC(=O)COc1c(F)cc(SCCNS(=O)(=O)c2ccccc2)cc1F` [2,6-Difluoro-4-[2-(phenylsulfonylamino)ethylthio]phenoxyacetamide], the “Z Score” value is recorded as −0.4983. For the same molecule, under setting [2], the Z score is given as −0.498. Also, the Activity entry under setting [7] was “no”.

`CC(N)(C(=O)O)c1ccc(C(=O)O)cc1` (racemic) [(±)-alpha-Methyl-4-carboxyphenylglycine] registered a Z score under setting [2] of 0.727. For the same molecule, the Activity entry under setting [7] was “no”.

Take `CC1CCN(CC[C@H]2CCCN2S(=O)(=O)c2cccc(O)c2)CC1.Cl` [SB 269970 hydrochloride]: the “Z Score” value is listed as −1.1. The same molecule had a Z score under setting [2] of −1.100. For the same molecule, under setting [3], the Activity result is recorded as “no”.

On to `Nc1nnc(-c2cccc(Cl)c2Cl)c(N)n1` [Lamotrigine], for which, under setting [1], the “Z Score” value is recorded as −1.095. The molecule further returned a Z score under setting [2] of −1.095. Further, under setting [6], the Activity result is on record as “no”.

Take `N#C/C(=C\c1ccc(O)c(O)c1)C(=O)NCc1ccccc1` [Tyrphostin AG 490]: under setting [10], the “Z Score” value is listed as 1.802. The Z score under setting [11] was 1.802. Further, the Activity result under setting [12] is reported as “no”.

Under setting [2], `O=Nc1ccc2oc(=O)ccc2c1` [6-Nitroso-1,2-benzopyrone] registered a Z score of 0.011. Further, under setting [7], the Activity result is “no”.

Turning to `COC[C@H]1OC(=O)c2coc3c2[C@@]1(C)C1=C(C3=O)[C@@H]2CCC(=O)[C@@]2(C)C[C@H]1OC(C)=O` [Wortmannin from Penicillium funiculosum], the “Z Score” value amounted to 0.4079. The same molecule displayed a Z score under setting [11] of 0.408. Besides, the Activity entry under setting [12] is recorded as “no”.

With `O=C(O)[C@@H]1CCN1` [L-azetidine-2-carboxylic acid], the “Z Score” value is 0.9837. The Z score under setting [2] is reported as 0.984. Under setting [3], the Activity result is given as “no”.

Take Metaproterenol hemisulfate: the “Z Score” value under setting [1] is on record as −1.022. Moreover, under setting [2], the Z score is recorded as −1.022. The Activity entry under setting [7] is reported as “no”.

Consider `O=C(O)CP(=O)(O)O` [Phosphonoacetic acid], for which, under setting [1], the “Z Score” value is given as −0.8885. This molecule also gave a Z score under setting [2] of −0.888. Moreover, the Activity result under setting [3] is listed as “no”.

`O=C(O)[C@H]1CCCN[C@H]1C(=O)O`: the “Z Score” value was determined as 0.1553.

In turn, (±)-Pindobind yielded a Z score under setting [2] of 0.257. Also, the Activity result under setting [3] was “no”.

Consider `c1ccc(-c2ccccn2)nc1` [2,2′-Bipyridyl], for which the “Z Score” value was 1.455. For the same molecule, the Z score under setting [9] was found to be 1.455. The Activity entry under setting [6] is on record as “no”.

As to `Nc1ncnc2c1ncn2[C@@H]1O[C@H](CO)[C@@H](O)[C@H]1O` [Adenosine], the “Z Score” value under setting [1] was −0.2086. This molecule yielded a Z score under setting [11] of −0.209. In addition, the Activity result under setting [12] is given as “no”.

`C[C@]12C=CC(=O)C=C1CC[C@@H]1C2=CC[C@]2(C)[C@@H](C(=O)CN3CCN(c4cc(N5CCCC5)nc(N5CCCC5)n4)CC3)CC[C@@H]12.O=C(O)/C=C\C(=O)O` [U-74389G maleate]: under setting [5], the “Z Score” value is recorded as −8.942. Also, the Z score under setting [2] is recorded as −8.942. The Activity result under setting [4] is given as “yes”.

Regarding `Nc1ccc2c3c(cccc13)C(=O)NC2=O` [4-Amino-1,8-naphthalimide], the “Z Score” value under setting [10] was 1.875. This molecule also came in with a Z score under setting [2] of 1.875. Also, the Activity entry under setting [3] is reported as “no”.

As for `O=S(=O)(c1cccc2cnccc12)N1CCNCC1` [HA-100], the “Z Score” value is −0.6892. In addition, the Z score under setting [2] was −0.689. In addition, under setting [4], the Activity result is on record as “no”.

On to `NC(=O)CC[C@H](N)C(=O)O` [L-Glutamine], for which, for the setting “168 h, 3 µM”, the “Z Score” value worked out at 0.8278 and the Z score is recorded as 0.828. The Activity entry under setting [6] is on record as “no”.

In the case of `C[N+](C)(C)CCCCCCCCCC[N+](C)(C)C.[Br-].[Br-]` [Decamethonium dibromide], the “Z Score” value is reported as −1.572. Under setting [2], this molecule gave a Z score of −1.572. The Activity result under setting [4] was “no”.

Take `CP(=O)(O)CCCN.Cl` [SKF 97541 hydrochloride]: the “Z Score” value is given as −0.7355. In addition, the Z score under setting [11] is reported as −0.736. The Activity entry under setting [12] is on record as “no”.

On to `CN(C)CCCC1(c2ccc(F)cc2)OCc2cc(C#N)ccc21` (stereo not shown) [Citalopram hydrobromide], for which the “Z Score” value under setting [5] is −1.858. Under setting [9], this molecule yielded a Z score of −1.858. Besides, under setting [6], the Activity entry is recorded as “no”.

As for `CC[N+](C)(C)Cc1ccccc1Br` [Bretylium tosylate], the Activity entry was “no”. For the same molecule, the “Z Score” value under setting [8] is −0.001709. In addition, under setting [9], the Z score is −0.002.

As to `N[C@@H](CCC(=O)N[C@@H](CSN=O)C(=O)NCC(=O)O)C(=O)O` [S-Nitrosoglutathione], where the note is “168 h, 3 µM”, the “Z Score” value worked out at 0.6978 and the Z score is given as 0.698. The Activity result under setting [7] is reported as “no”.

Consider `NCC(CC(=O)O)c1ccc(Cl)cc1` (stereo not shown) [(B1)-Baclofen], for which the “Z Score” value is on record as −1.069.

For `C[C@@]1(C2CCCC2)Cc2cc(OCC(=O)O)c(Cl)c(Cl)c2C1=O` [R(+)-IAA-94], the “Z Score” value is recorded as −0.01015. The same molecule returned a Z score under setting [2] of −0.010. For the same molecule, the Activity entry under setting [6] is “no”.

Turning to `COC(=O)[C@H]1[C@H]2C[C@H]3c4[nH]c5ccccc5c4CCN3C[C@H]2CC[C@@H]1O` [Rauwolscine hydrochloride], for the setting “168 h, 3 µM”, the “Z Score” value is −1.747 and the Z score is listed as −1.747. Further, the Activity entry under setting [3] is “no”.

`CCCC(=O)NCCc1c2n(c3ccc(OC)cc13)Cc1ccccc1-2` [IIK7]: the “Z Score” value is −0.3544. Besides, the Z score under setting [2] is on record as −0.354. Also, the Activity result under setting [6] was “no”.

`CCN1CCCC1CNC(=O)c1cc(S(N)(=O)=O)ccc1OC` (stereo not shown) [(B1)-Sulpiride]: the “Z Score” value is recorded as −0.2841.

In the case of `CC(N)(Cc1ccc(O)c(O)c1)C(=O)O` (racemic), the “Z Score” value was −1.894.

For `CCCCC/C=C\C[C@@H](O)/C=C/c1cccc(C[C@@H](O)CCCCO)n1` [U-75302], the “Z Score” value is given as −0.1722. Also, the Z score under setting [11] is −0.172. For the same molecule, the Activity entry under setting [12] is “no”.

For `Oc1ccc(C2CNCCc3c2cc(O)c(O)c3Cl)cc1` (stereo not shown) [Fenoldopam bromide], the “Z Score” value under setting [8] is 0.05219. Besides, the Z score under setting [2] turned out to be 0.052. Also, the Activity result under setting [6] is given as “no”.

Turning to “R(−)-2,10,11-Trihydroxy-N-propylnoraporphine hydrobromide”, the “Z Score” value is listed as −2.744.
